The text below walks through data of patent US20240109868A1, “EP300/CBP MODULATOR, PREPARATION METHOD THEREFOR AND USE THEREOF” (Miracure Biotechnology Limited, priority 2022, published 2024).

One test has as its system 22Rv1 Cell. The test can be described thus: 22RV1 cell growth inhibition, CellTiter-Glo, 72 h. Format: cell-based. Conditions: Homo sapiens, 22Rv1, 72 h, 22RV1 cells, 72 h culture. A digest of the protocol: (§1)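 Cells seeded at 5×10^3/well overnight in RPMI-1640/10% FBS, then exposed to compound (0.5% DMSO final) for 72 h at 37 °C.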
For the next test, the system named is vCap Cell. Put plainly: vCap cell growth inhibition, CellTiter-Glo, 72 h. The class given is cell-based. Conditions: Homo sapiens, VCaP, 72 h, vCap cells, 72 h culture. A digest of the protocol:
as §1

The target of a further test is T1, EP300 (Homo sapiens, UniProt Q09472).
T1 construct: purchased
The test can be described thus: Ep300 AlphaLISA assay kit. The class given is biochemical. To be noted: read-out: EP300 ALPHA IC50. Here is the method: The biochemical activity of the EP300 modulators was determined using the Ep300 AlphaLISA® assay kit. The assay is based on the […] of residues in the peptide substrate by enzymatic transfer of acetyl groups from acetyl-CoA to particular lysine. The compounds were incubated with EP300 and then with an antibody combination of an antibody that specifically binds to an acetylated peptide and acceptor beads that bind to an acetylated peptide, followed by streptavidin-labeled donor beads. The alpha counts were read, the data were analyzed using Prism 7.0, and the IC50 values were calculated. The values are shown as mean f SEM (N=2).

The target of another test is T2, CBP bromodomain (Homo sapiens, UniProt Q92793).
T2 construct: purchased
Put plainly: CBP AlphaLISA assay kit (CBP bromodomain binding to acetylated histone substrate). Conditions: read-out: CBP ALPHA IC50. Here is the method:
The biochemical activity of the CBP inhibitors was determined using the CBP AlphaLISA® assay kit. The assay is based on the binding of the CBP bromodomain to the acetylated histone substrate. The compounds were incubated with CBP and the biotinylated substrate for 30 min. Then acceptor beads were added, followed by 15 min of incubation, and donor beads were added, followed by 15 min of incubation. Then the alpha counts were read, the data were analyzed using Prism 7.0, and the IC50 values were calculated. The values are shown as mean f SEM (N=2).

T1 sequence (Q09472 whole entry): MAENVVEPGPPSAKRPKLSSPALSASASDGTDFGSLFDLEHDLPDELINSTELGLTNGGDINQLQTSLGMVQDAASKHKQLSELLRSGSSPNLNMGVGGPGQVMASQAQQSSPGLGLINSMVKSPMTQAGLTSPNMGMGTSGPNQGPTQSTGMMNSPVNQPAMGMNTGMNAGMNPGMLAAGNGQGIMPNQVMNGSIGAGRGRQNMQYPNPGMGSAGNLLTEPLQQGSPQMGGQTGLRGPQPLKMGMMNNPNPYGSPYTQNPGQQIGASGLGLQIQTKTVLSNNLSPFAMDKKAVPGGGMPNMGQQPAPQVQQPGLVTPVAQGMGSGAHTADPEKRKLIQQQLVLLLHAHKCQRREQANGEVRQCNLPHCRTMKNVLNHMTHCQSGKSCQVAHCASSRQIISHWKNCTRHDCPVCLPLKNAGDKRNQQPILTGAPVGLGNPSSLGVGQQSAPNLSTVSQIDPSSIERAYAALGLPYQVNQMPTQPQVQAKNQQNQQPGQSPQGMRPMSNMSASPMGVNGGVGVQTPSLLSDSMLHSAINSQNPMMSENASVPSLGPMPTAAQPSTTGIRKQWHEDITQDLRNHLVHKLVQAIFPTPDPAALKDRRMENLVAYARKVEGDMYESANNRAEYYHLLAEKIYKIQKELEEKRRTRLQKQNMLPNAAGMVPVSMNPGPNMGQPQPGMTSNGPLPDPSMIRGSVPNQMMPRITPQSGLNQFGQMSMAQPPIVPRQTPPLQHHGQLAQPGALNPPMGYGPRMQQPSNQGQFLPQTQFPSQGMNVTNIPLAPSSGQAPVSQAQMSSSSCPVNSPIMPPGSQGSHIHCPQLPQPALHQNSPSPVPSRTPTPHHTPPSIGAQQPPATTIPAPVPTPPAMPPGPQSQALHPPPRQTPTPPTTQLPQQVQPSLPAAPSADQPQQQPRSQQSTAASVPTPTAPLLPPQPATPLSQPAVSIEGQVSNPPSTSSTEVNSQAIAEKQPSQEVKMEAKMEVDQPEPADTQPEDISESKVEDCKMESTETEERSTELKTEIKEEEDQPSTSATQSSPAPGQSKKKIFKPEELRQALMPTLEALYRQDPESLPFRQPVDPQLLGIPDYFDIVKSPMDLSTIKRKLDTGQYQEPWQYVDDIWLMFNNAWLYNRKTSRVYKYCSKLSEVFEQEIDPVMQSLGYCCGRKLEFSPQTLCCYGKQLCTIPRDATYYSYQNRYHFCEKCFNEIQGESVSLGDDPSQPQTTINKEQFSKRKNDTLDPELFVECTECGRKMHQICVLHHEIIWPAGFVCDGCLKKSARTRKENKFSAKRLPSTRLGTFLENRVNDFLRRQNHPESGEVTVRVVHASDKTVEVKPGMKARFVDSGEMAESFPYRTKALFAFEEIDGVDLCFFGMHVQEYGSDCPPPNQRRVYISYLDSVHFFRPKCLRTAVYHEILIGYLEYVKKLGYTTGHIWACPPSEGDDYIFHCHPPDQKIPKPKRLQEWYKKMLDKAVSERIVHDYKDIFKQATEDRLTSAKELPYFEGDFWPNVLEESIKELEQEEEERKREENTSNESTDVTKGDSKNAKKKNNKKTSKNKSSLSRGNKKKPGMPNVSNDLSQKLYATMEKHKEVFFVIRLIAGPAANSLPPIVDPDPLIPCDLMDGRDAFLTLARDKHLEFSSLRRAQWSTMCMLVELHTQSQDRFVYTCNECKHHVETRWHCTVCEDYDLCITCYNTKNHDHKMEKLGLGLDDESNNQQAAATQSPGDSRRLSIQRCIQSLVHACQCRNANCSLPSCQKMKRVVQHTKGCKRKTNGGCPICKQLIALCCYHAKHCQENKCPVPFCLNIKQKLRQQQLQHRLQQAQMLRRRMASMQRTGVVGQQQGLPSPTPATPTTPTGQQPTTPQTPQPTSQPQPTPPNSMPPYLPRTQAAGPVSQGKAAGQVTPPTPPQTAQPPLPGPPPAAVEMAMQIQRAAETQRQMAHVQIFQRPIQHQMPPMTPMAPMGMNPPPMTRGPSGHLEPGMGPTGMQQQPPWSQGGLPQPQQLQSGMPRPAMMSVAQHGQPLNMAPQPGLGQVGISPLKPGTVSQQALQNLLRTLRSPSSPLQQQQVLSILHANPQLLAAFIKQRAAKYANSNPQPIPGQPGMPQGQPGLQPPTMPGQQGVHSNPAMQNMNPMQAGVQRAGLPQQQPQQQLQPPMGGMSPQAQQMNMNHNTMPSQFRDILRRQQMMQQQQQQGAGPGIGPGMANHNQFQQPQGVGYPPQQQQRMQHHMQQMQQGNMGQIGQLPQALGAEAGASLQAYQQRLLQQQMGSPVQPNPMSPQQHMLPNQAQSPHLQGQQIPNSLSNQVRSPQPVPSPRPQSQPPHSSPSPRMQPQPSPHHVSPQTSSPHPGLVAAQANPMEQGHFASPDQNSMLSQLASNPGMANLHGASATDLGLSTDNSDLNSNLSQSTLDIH
T2 sequence (Q92793 1085-1192 limits assumed): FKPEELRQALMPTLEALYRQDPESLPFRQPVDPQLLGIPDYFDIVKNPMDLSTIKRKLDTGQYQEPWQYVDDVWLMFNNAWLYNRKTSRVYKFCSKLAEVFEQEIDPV

On to `CC(=O)N1Cc2cc(C3CCOCC3)cc(N3CCCc4cc(-c5cnn(C)c5)c(C(F)F)cc43)c2C1` [Compound M001067], for which the half-maximal inhibitory concentration (IC50) in the test on 22Rv1 Cell was over 1000 nM; in the test with vCap Cell, under 1000 nM; on EP300, under 10 nM; at CBP bromodomain, under 10 nM.
`CC(=O)N1Cc2cc(C3CCC(=O)NC3)cc(N3CCCc4cc(-c5cnn(C)c5)c(C(F)F)cc43)c2C1` (stereo not drawn) [Compound M001174]: the IC50 was over 1000 nM in the test with 22Rv1 Cell, under 1000 nM in the test on vCap Cell and under 10 nM on CBP bromodomain.
For `CC(=O)N1Cc2cc(C3CCN(CC(C)O)C(=O)C3)cc(N3CCCc4cc(-c5cnn(C)c5)c(C(F)F)cc43)c2C1` (stereo not drawn) [Compound M001190], in that order: under 1000 nM, under 1000 nM and under 10 nM.
For `COCCN1CCC(c2cc3c(c(N4CCCc5cc(-c6cnn(C)c6)c(C(F)F)cc54)c2)CN(C(C)=O)C3)CC1=O` (stereo not drawn) [Compound M001191], in that order: under 1000 nM, under 1000 nM and under 10 nM.
As to `COC(=O)N1CCc2cccc(N3CCCc4cc(-c5cnn(C)c5)c(C(F)F)cc43)c2C1` [Compound M001202], the IC50 with 22Rv1 Cell was over 1000 nM; with vCap Cell, over 1000 nM; at EP300 it was under 10 nM; at CBP bromodomain, under 10 nM.
For the molecule `CNC(=O)N1Cc2nc(Cl)nc(N3CCCc4cc(-c5cnn(C)c5)c(C(F)F)cc43)c2C1` [Compound M001242], the IC50 with 22Rv1 Cell is over 1000 nM; with vCap Cell, over 1000 nM; on EP300 it was over 10 nM; at CBP bromodomain, over 10 nM.
As for `CC(=O)N1Cc2nc(C3CCOCC3)nc(N3CCCc4cc(-c5cnn(C)c5)c(C(F)F)cc43)c2C1` [Compound M001243], the IC50 in the test with 22Rv1 Cell is over 1000 nM; with vCap Cell, over 1000 nM; at EP300 it was over 10 nM; on CBP bromodomain it was over 10 nM.
Consider `CNC(=O)N1CCc2nc(C3CCOCC3)nc(N3CCCc4cc(-c5cnn(C)c5)c(C(F)F)cc43)c2C1` [Compound M001245, 4-(7-(Difluoromethyl)-6-(1-methyl-1H-pyrazol-4-yl)-3,4-dihydroquinolin-1(2H)-yl)-N-methyl-2-(tetrahydro-2H-pyran-4-yl)-7,8-dihydropyrido[4,3-d]pyrimidine-6(5H)-carboxamide], for which the 50% inhibitory concentration (IC50) with 22Rv1 Cell is over 1000 nM; in the test on vCap Cell, over 1000 nM; on EP300, under 10 nM; at CBP bromodomain, under 10 nM.
On to `CNC(=O)N1CCc2c(c(N3CCCc4cc(-c5cnn(C)c5)c(C(F)F)cc43)nn2C2CCOCC2)C1` [GNE-781], for which the IC50 with 22Rv1 Cell was over 1000 nM; in the test on vCap Cell, over 1000 nM; at EP300, under 10 nM; on CBP bromodomain it was under 10 nM.
